Several values for one entry are separate records, joined by “and”; a condition that tells them apart may be missing. Equal entries are not always repeated.
conditions: rat; liver microsomes; pH 7.4; 15.0 min; 1.0 µM

SMILES	half-life
CCOc1ccc(CCNC(=O)c2cc3sccc3n2C)cc1OCC	1.6 min
Cc1ccc(-c2csc(NC(=O)c3ccccc3NS(=O)(=O)c3ccc(C)cc3)n2)cc1	2.6 min
Cc1cc(Nc2nc(-c3ccncc3)nc3ccccc23)n[nH]1	7.3 min
Cc1ccccc1S(=O)(=O)N1CCCC(CCC(=O)NCCN(C)C2CCCCC2)C1 (centres undefined)	2.16 min
CCOC(=O)c1cnc2ccc(-c3cncc(NS(=O)(=O)c4ccccc4)c3)cn12	19 min
C#Cc1ccc(NC(=O)c2cnn3c(C)cc(C)nc23)cc1	25.5 min
COc1ccc(C(=O)N2CCC3(CC2)CN(c2cccc(-c4ccccc4)c2)C3)cc1	22 min
CCCc1cc(=O)oc2c3c(c4c(c12)OC(C)(C)C=C4)OC(C)C(C)C3O (centres undefined)	13.2 min
CC(C)CN(CC(=O)N(CCCN1CCCC1=O)CC(N)=O)C(=O)CNCCc1ccccc1F	> 30 min
CCOc1ccccc1C(=O)NC1CCN(c2cc(C)cc(C)c2)C1=O (centres undefined)	8.98 min
CC(NCc1ccc2c(c1)nc(NC(=O)c1ccc(-c3cn[nH]c3)s1)n2CC(C)(C)O)C(C)(C)C (centres undefined)	18.8 min
Cc1sc(NC(=O)Cc2ccc3c(c2)OCO3)nc1-c1ccc2c(c1)CCN2C(=O)c1ccccc1C(F)(F)F	> 30 min
CC(C)n1cc(-c2ccc(Oc3ccccc3)cc2)c2c(N)ncnc21	18 min
Fc1cnc(-c2ccccc2C(F)F)nc1NCC1CCN(c2cnccn2)C1 (centres undefined)	2.8 min
CCc1cccc(NC(=O)c2cc(-c3ccc[nH]3)n[nH]2)c1	6.57 min
Fc1ccc(Nc2nc(Nc3ccncc3)nc3ccccc23)cc1F	> 30 min
COc1ccc2nc(C)cc(Nc3ccc(Cl)c(Cl)c3)c2c1	15.5 min
CCOc1ccc(N2CC(c3nc(-c4cc(OC)c(OC)c(OC)c4)no3)CC2=O)cc1 (centres undefined)	7.3 min
COc1ccccc1OCCNCC(O)COc1cccc2[nH]c3ccccc3c12 (centres undefined)	1.52 min
CCc1ccc(NC(=O)c2[nH]c(C)c(C(C)=O)c2C)cc1[S+](=O)([O-])N1CCCCCC1	2.1 min
COc1ccc(Cn2c(=O)[nH]c3cc(C(=O)NCCCN4CCCCC4)ccc3c2=O)cc1	> 30 min
COc1ccc(C(=O)N2CCCC(c3nn(-c4ccc(OC)cc4)c(=O)[nH]3)C2)cc1 (centres undefined)	> 30 min
CC(C)c1ccccc1-c1nc2c(c(NCc3ccc(-c4cccnc4)cc3)n1)CNC2	6.21 min
COc1ccc(-n2nc(C3CCCN(CC4CCCCC4)C3)[nH]c2=O)cc1 (centres undefined)	> 30 min
COc1cc2nccc(Oc3ccc(NC(=O)C4(C(=O)Nc5ccc(F)cc5)CC4)cc3)c2cc1OC	> 30 min
COc1ccc(-c2cc3nccn3c(Nc3ncccc3C(N)=O)n2)cc1OC	> 30 min

SMILES	half-life
Cc1ccc(Nc2nc(-c3ccncc3)nc3ccccc23)cc1F	12 min
CCNc1oc(-c2cccc3ccccc23)nc1C#N	13 min
Cc1cc(-c2nc(Nc3ccc(F)c(F)c3)c3ccccc3n2)ccn1	22 min
Cn1cnc(S(=O)(=O)Nc2cnccc2C(=O)Nc2nc(-c3ccccc3)cs2)c1	> 30 min
Cc1ccnc(NC(=S)N2CCN(c3ncc(C(F)(F)F)cc3Cl)CC2)c1	> 30 min
O=C(CCCc1ccc2cccnc2n1)NCc1cc(-c2ccc(F)c(C(F)(F)F)c2)no1	9.4 min
Cc1ccc(S(=O)(=O)Nc2ccccc2C(=O)Nc2ncc(-c3ccccc3)s2)cc1	13 min
CCOC(=O)Cc1ccc(NC(=O)n2ncc3cc(Cl)ccc32)cc1	2.5 min
Cc1cc(C)cc(C(=O)Nc2ccc3c(N4CCCC4)ncnc3c2)c1	8.23 min
O=C(Nc1cccc(Cc2ccccc2)n1)c1ccc(-c2cccc([N+](=O)[O-])c2)o1	1.7 min
NC(=O)C1CCN(c2nc(-c3cccc(N)c3)cs2)CC1	> 30 min
Cc1ccc(-c2cc(C(=O)Nc3ccc(S(=O)(=O)NCc4nccs4)cc3)c3ccccc3n2)cc1C	5.8 min
CCN(CC)CCCNC(=O)c1oc2c(c1C)-c1nn(Cc3ccc(Cl)cc3)cc1CC2	> 30 min
CC(C)(C)CC(C)(C)c1ccc(O)cc1	5.8 min
O=C(Nc1ccc(Cl)c(S(=O)(=O)N2CCOCC2)c1)c1ccc(S(=O)(=O)N2CCCCC2)cc1	3 min
CN=C1CN=C(c2ccc[nH]2)c2cc(Cl)ccc2N1	> 30 min and 23 min
COc1ccc(-c2ccc3nc(-c4cc(F)cc(F)c4F)oc3c2)c(OC)c1OC	> 30 min
CCCCCCCC/C=C\CCCCCCCC(=O)NCCO	2.33 min
O=C1CCCC2=C1C1(CCSC1)N=C(Nc1nc3ccccc3o1)N2 (centres undefined)	2.5 min
Cc1ccc(-n2ncc3c(NCCCN(C)C)ncnc32)cc1Cl	8.9 min
O=S(=O)(Nc1cccc2ccncc12)c1ccc(NCc2cccc(Cl)c2O)cc1	9.9 min
Cc1ccc(/C=C/c2nc3ccccc3n2S(=O)(=O)c2ccc(Br)cc2)cc1	28.6 min
CCOC(=O)c1ccc(NC2CCCCC2)c(N)c1	2.5 min
O=c1ncn2nc(Sc3ccc(F)cc3F)ccc2c1-c1c(Cl)cccc1Cl	> 30 min
Cc1nn2c(c1-c1ccccc1-c1ccccc1)N(Cc1ccc(C(=O)O)s1)CCC2	7.81 min
Oc1ccc(CNc2ccccc2Br)c2cccnc12	4.46 min

SMILES	half-life
OCC(O)CCO/N=C1/C(c2c(O)[nH]c3ccccc23)=Nc2ccccc21 (centres undefined)	10 min
O=S(=O)(Nc1ccc2ccccc2c1)c1ccc(NCc2ccc(Br)cc2O)cc1	15 min
COc1ccc(NC(C)=O)cc1S(=O)(=O)Nc1ccc(Br)cc1	> 30 min
Oc1ccc(CNc2ccc(F)cc2F)c2cccnc12	3.19 min
Cc1ccc(-c2cc(C(=O)NCc3cnn(C)c3)c3cc(Br)ccc3n2)cc1	> 30 min
CCc1ccc2oc(=O)cc(CN3CCN(c4ccccc4F)CC3)c2c1	3 min
CCN1C(=O)c2ccccc2S(=O)c2ccc(NC(=O)Cc3ccc(OC)cc3)cc21 (centres undefined)	6.1 min
Cc1cn2c(-c3cn[nH]c3)cnc2c(Nc2ccc(C(=O)N3CCNCC3)cc2F)n1	7 min
CCOc1ccc(CCNC(=O)c2cc3ccncc3n2Cc2cccc(C)c2)cc1OCC	7.1 min
Nc1cc2nc3ccccc3oc-2cc1=O	8.63 min
CCCn1cnc2cc(NCc3ccc(OC)cc3OC)ccc21	7.1 min
O=S(=O)(Nc1nccs1)c1ccc(NCc2ccccc2)cc1	10 min
C[C@@H](O)CNC(C)(C)CC(=O)N[C@@H]1CCc2ccccc2N(Cc2ccc(-c3ccccc3-c3nn[nH]n3)cc2)C1=O	> 30 min
COC(=O)C1=C(C)NC(C)=C(C(=O)OCCCN2CCC(c3ccccc3)(c3ccccc3)CC2)C1c1cccc([N+](=O)[O-])c1 (centres undefined)	5.13 min
Cc1ccc(-c2[nH]n3c(=O)c4c(nc3c2C)CCCC4)cc1	8.72 min
O=C(O)CCNc1cc(N2CCc3ccccc3CC2)nc(-c2cccnc2)n1	> 30 min
Cc1sc(NC(=O)Cc2ccc3c(c2)OCO3)nc1-c1ccc2c(c1)CCN2C(=O)c1ccccc1F	20 min
CN(C)c1ccc(-c2csc(N3CCC(C(N)=O)CC3)n2)cc1	4.12 min
CC1=C(C(=O)Nc2nc3ccccc3s2)C(c2[nH]ncc2Cl)N=C(Nc2nc3ccccc3o2)N1 (centres undefined)	10.4 min
O=S(=O)(Nc1ccc(-c2ccccc2)cc1)c1ccc(NCc2ccc(Br)cc2O)cc1	21 min
O=C(Nc1nc(-c2ccccc2)cs1)c1ccncc1NS(=O)(=O)c1ccc(Cl)cc1	18.2 min
Cc1ccc(-c2cc(C(=O)Nc3ccc(S(N)(=O)=O)cc3)c3ccccc3n2)cc1C	> 30 min
Cc1cnc(-c2ccccc2C(C)C)nc1NCC1CN(c2cccnc2)C1	2.6 min
Fc1ccc(CN2CCOC[C@H]2c2ncc(-c3ccc(Cl)s3)[nH]2)cc1	3.47 min
NC(=O)C1CCN(c2nc(-c3cccc4sc5ccccc5c34)cs2)CC1	> 30 min
Cc1ccnc(NC(=S)N2CCN(c3cccc(C(F)(F)F)c3)C[C@@H]2C)c1	7.12 min

SMILES	half-life
CC(=O)c1c(C)[nH]c(C(=O)Nc2cccc([S+](=O)([O-])Nc3cccnc3)c2)c1C	17 min
CCCCNc1oc(-c2cccc3ccccc23)nc1C#N	5.78 min
CCS(=O)(=O)c1ncc(N(Cc2ccc(F)cc2)Cc2ccco2)c(C(=O)Nc2cc(C)ccc2C)n1	3.51 min
CN1C(=O)c2ccccc2[S@](=O)c2ccc(C(=O)NCc3ccc(Br)cc3)cc21	13 min
O=C(c1cccs1)c1nonc1C(=O)c1cccs1	1.49 min
Nc1nc2c(s1)C(c1cc(Cl)ccc1F)CC(=O)N2 (centres undefined)	> 30 min
COc1ccc(CNC(=O)CCCn2nc(C)c3c(C)n(-c4ccc(C)cc4)nc3c2=O)cc1OC	4.18 min
Cc1cccc(-n2cnc3cc(C(=O)N4CCC(Br)CC4)ccc32)c1	2.5 min
COc1ccc(NS(=O)(=O)c2ccc(C)cc2)c(C(=O)Nc2nc(-c3ccccc3)cs2)c1	4.5 min
O=c1cc(-c2ccc(O)c(O)c2)oc2cc(O)cc(O)c12	> 30 min
O=C(Nc1nc(-c2ccccc2)cs1)c1ccncc1NS(=O)(=O)c1cccc(Cl)c1	5 min
N#Cc1nc(-c2cccc3ccccc23)oc1NC1COC1	28 min
O=C1NC(=S)NC(=O)C1=Cc1cccn1-c1ccc(O)cc1	10.5 min
CCOc1ccc(CCNC(=O)c2cc3sccc3n2Cc2ccccn2)cc1OCC	1.5 min
Cc1ccc(Nc2nc(NCCO)c3ccccc3n2)cc1C	2.42 min
COc1cccc(CNc2ccc(S(=O)(=O)Nc3ccc(-c4ccccc4)cc3)cc2)c1O	2.7 min
CCc1ccc(C2N=C(N)Nc3nc4ccccc4n32)cc1 (centres undefined)	5.62 min
COc1ccc(-c2ccc3ncc4c(c3c2)n(-c2ccc(N3CCNCC3)c(C(F)(F)F)c2)c(=O)n4C)cn1	> 30 min
O=C(NCCCc1ccccc1)C1CCN(c2nc(-c3ccc(Br)cc3)cs2)CC1	2.96 min
COc1ccc(-c2nc(Nc3ccc(F)c(F)c3)c3ccccc3n2)cc1	> 30 min
Cc1sc2c(c1C)C(c1ccc(Cl)cc1)=N[C@@H](CC(=O)Nc1ccc(OCCOCCOCCOCCNc3cccc4c3C(=O)N(C3CCC(=O)NC3=O)C4=O)cc1)c1nnc(C)n1-2 (some centres undefined)	1.26 min
NS(=O)(=O)c1ccc(NC(=O)c2cc3ncccn3n2)cc1	> 30 min
O=C(NCc1cccs1)c1cn2cc(-c3ccccc3)sc2n1	12.7 min
NC(CO)(CO)CCc1ccc(Sc2cccc(OCc3ccccc3)c2)cc1Cl	> 30 min
Cc1cc(C)nc(NC(=S)N2CCN(c3ccc(Cl)cc3F)CC2)c1	> 30 min
C[C@@H](NC(=O)c1ncnc(N)c1Cl)c1ncc(C(=O)Nc2cc(C(F)(F)F)c(Cl)cn2)s1	> 30 min

— PubChem BioAssay AID1508591
